Experimental data published in patent US20220033426A1, “Transition Metal Macrocyclics as MRI Contrast Agents for Molecular Imaging” (YALE UNIVERSITY, priority 2020, published 2022).

Key:
[1] = Temperature sensitivity of 1H NMR proton chemical shift (BIRDS), variable temperature; assay type: physicochemical; conditions: At 11.7 T and a temperature range of 25-42° C.
Excerpt: (§1) For paramagnetic complexes, the total chemical shift of the nuclear spin (δO) is dependent on the cumulative effects of diamagnetic (δD) and paramagnetic (δP) terms, where δP is typically much larger than δD, which has also a very weak temperature dependence. Thus, the effect of temperature on the chemical shift is dominated by δP. Similarly, protonation of an exchangeable group from the complex can modify its geometry and alter its chemical shifts, thus providing pH sensing capability. Variation of the total shift term, ΔδO, when temperature changes by ΔT and pH changes by ΔpH, can be modeled as
(§2) where CT=(ΔδO/ΔT)pH,[X] is the temperature sensitivity, CpH=(ΔδO/Δ pH)T,[X] is the pH sensitivity, and CX represents the sensitivity to cation X concentration (see Coman, D. et al., “Brain temperature by Biosensor Imaging of Redundant Deviation in Shifts (BIRDS): comparison between TmDOTP5^− and TmDOTMA^−,” NMR in Biomedicine, 2010, 23(3):277-285 for details). pH or temperature sensing with BIRDS depends on CT and CpH in relation to ΔδO (>>10^1 ppm) and is inherently independent of agent concentration and static magnetic field (BO) (Coman, D. et al., “Brain temperature and pH measured by 1H chemical shift imaging of a thulium agent,” NMR in Biomedicine, 2009, 22(2):229-239).
(§3) Since the ^1H NMR chemical shifts of the —NH peaks in the [XDOTA-4AmC]^2− and [XDOTA-4AmP]^6− complexes are temperature and pH-dependent (FIG. 6 and FIG. 7), they can be used for measurements of temperature and pH using BIRDS (Table 1). […] In the [XDOTMA]^2− set of complexes, it was observed that the —CH3 proton resonance has a higher intensity compared to other nonexchangeable proton peaks, like H2 or H3 (FIG. 2). The 3D surface plots in FIGS. 10A-C represent the temperature and pH dependencies of the —CH3 proton resonance of the [XDOTMA]^2− complex.

[2] = pH sensitivity of 1H NMR proton chemical shift (BIRDS), variable pH; assay type: physicochemical; conditions: At 11.7 T and a pH range of 6.5-8.0
Excerpt: as §1, §2, §3

SMILES | Temperature Sensitivity, —NH proton resonance [1] [ppm/° C.] | pH Sensitivity, —NH proton resonance [2] [ppm/pH unit]
O=C(CN1CCN(CC(=O)NCP(=O)([O-])[O-])CCN(CC(=O)NCP(=O)([O-])[O-])CCN(CC(=O)NCP(=O)([O-])[O-])CC1)NCP(=O)([O-])[O-].[Co+2] [[Co(ii)DOTA-4AmP]^6−] | 0.14 ± 0.01 | 0.37 ± 0.08
O=C([O-])CNC(=O)CN1CCN(CC(=O)NCC(=O)[O-])CCN(CC(=O)NCC(=O)[O-])CCN(CC(=O)NCC(=O)[O-])CC1.[Fe+2] [[Fe(ii)DOTA-4AmC]^2−] | 0.16 ± 0.01 | 0.04 ± 0.02
O=C([O-])CNC(=O)CN1CCN(CC(=O)NCC(=O)[O-])CCN(CC(=O)NCC(=O)[O-])CCN(CC(=O)NCC(=O)[O-])CC1.[Ni+2] [[Ni(ii)DOTA-4AmC]^2−] | 0.14 ± 0.02 | 1.07 ± 0.12
